Test results taken from patent US20260200888A1, “BIO-BASED COMPOUNDS” (SPECIALTY OPERATIONS FRANCE, priority 2022, published 2026).

Legend:
[1] = Solubility of mono-fungicides in the solvent of Example 6 and prior art solvents (Example 7); details: 24° C.; for Maximum solubility (w/v) in Cyrene: solvent Cyrene; for Maximum solubility (w/v) in Example 6: solvent Example 6; for Maximum solubility (w/v) in Rhodiasolv ADMA10: solvent Rhodiasolv ADMA10
[2] = Solubility of mono-fungicides in the solvent of Example 1 and prior art solvents (Example 2); details: for Maximum solubility (w/v) in Cyrene: solvent Cyrene; for Maximum solubility (w/v) in Example 1: solvent Example 1; for Maximum solubility (w/v) in Rhodiasolv ADMA10: solvent Rhodiasolv ADMA10; for Maximum solubility (w/v) in Rhodiasolv PolarClean: solvent Rhodiasolv PolarClean
Source text: The concentration of the fungicides (w/v) was increased in 5% intervals and the highest still soluble concentration is stated in the table below.

[3] = in Cyrene and NBP
[4] = 24° C., 5% intervals, highest still soluble concentration

SMILES | Maximum solubility (w/v) in Cyrene [1] | Maximum solubility (w/v) in Example 6 [1] | Maximum solubility (w/v) in Rhodiasolv ADMA10 [1] | Maximum solubility (w/v) in Cyrene ([2]; 0° C. after seeding) | Maximum solubility (w/v) in Cyrene ([2]; 24° C.) | Maximum solubility (w/v) in Example 1 ([2]; 0° C. after seeding) | Maximum solubility (w/v) in Example 1 [2, 4] | Maximum solubility (w/v) in Rhodiasolv ADMA10 ([2]; 0° C. after seeding) | Maximum solubility (w/v) in Rhodiasolv ADMA10 ([2]; 24° C.) | Maximum solubility (w/v) in Rhodiasolv PolarClean ([2]; 0° C. after seeding) | Maximum solubility (w/v) in Rhodiasolv PolarClean ([2]; 24° C.) | Viscosity of the resulting NBPT solution ([3]; even at 35% (w/v)) | Appearance of the NBPT solution ([3]; even at low concentrations)
CO/C=C(/C(=O)OC)c1ccccc1Oc1cc(Oc2ccccc2C#N)ncn1 [Azoxystrobin] | 20% (w/v) | 10% (w/v) | 2% (w/v) | 20% (20%) % (w/v) | 20% (20%) % (w/v) | 10% (10%) % (w/v) | 10% (10%) % (w/v) | (2%) % (w/v) | 2% (w/v) | (5%) % (w/v) | 15% (w/v) |  | 
CC(C)(C)C(O)(CCc1ccc(Cl)cc1)Cn1cncn1 (stereo not drawn) [Tebuconazole] |  |  |  |  |  |  |  | (20%) % (w/v) |  | (30%) % (w/v) |  |  | 
CC(C)N(C)S(=O)(=O)NC(=O)c1cc(-n2c(=O)cc(C(F)(F)F)n(C)c2=O)c(F)cc1Cl [Saflufenacil] | 10% (w/v) | >10% (w/v) | 10% (w/v) | 10% (10%) % (w/v) | 10% (10%) % (w/v) | 20% (20%) % (w/v) | 20% (20%) % (w/v) | (10%) % (w/v) | 10% (w/v) | (25%) % (w/v) | 25% (w/v) |  | 
CCCCNP(N)(N)=S [NBPT, N-(n-butyl)thiophosphoric triamide] |  |  |  |  |  |  |  |  |  |  |  | highly viscous | yellow discoloration
COC(=O)N(OC)c1ccccc1COc1ccn(-c2ccc(Cl)cc2)n1 [Pyraclostrobin] | 45% (w/v) | >25% (w/v) | 15% (w/v) | 45% (45%) % (w/v) | 45% (45%) % (w/v) | 45% (45%) % (w/v) | 45% (45%) % (w/v) | (10) % (w/v) | 15% (w/v) | (45%) % (w/v) | 45% (w/v) |  | 
OC(Cc1ccccc1Cl)(Cn1nc[nH]c1=S)C1(Cl)CC1 (stereo not drawn) [Prothioconazole] | 10% (w/v) | >30% (w/v) | 40% (w/v) | 10% (10%) % (w/v) | 10% (10%) % (w/v) | 50% (50%) % (w/v) | 50% (50%) % (w/v) | (40%) % (w/v) | 40% (w/v) | (50%) % (w/v) | 50% (w/v) |  | 
